Test results published in ChEMBL document CHEMBL1201862, “PubChem BioAssay data set” (2004).
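How tested: cells in 96-well plates exposed to compound for 48 hours at five concentrations. At the GI50, growth is halved.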 Calls of active or inactive are those of the source. Cut-off read from the data, not from the text of the source: active = GI50 up to about 1.1 µM and inactive = higher.

Key:
Assay in all cases: NCI-60 cell line screen, 48 h
OVCAR-8 = system: OVCAR-8
M14 = system: M14
UACC-62 = system: UACC-62
RPMI-8226 = system: RPMI-8226
DU-145 = system: DU-145
UACC-257 = system: UACC-257
RXF 393 = system: RXF 393
MDA-MB-435 = system: MDA-MB-435
UO-31 = system: UO-31
HOP-62 = system: HOP-62
MOLT-4 = system: MOLT-4
COLO 205 = system: COLO 205
CAKI-1 = system: CAKI-1
NCI-H460 = system: NCI-H460
OVCAR-3 = system: OVCAR-3
IGROV-1 = system: IGROV-1
EKVX = system: EKVX
SNB-75 = system: SNB-75
SK-MEL-5 = system: SK-MEL-5

Structure (SMILES)	GI50 (OVCAR-8)	GI50 (M14)	GI50 (UACC-62)	GI50 (RPMI-8226)	GI50 (DU-145)	GI50 (UACC-257)	GI50 (RXF 393)	GI50 (MDA-MB-435)	GI50 (UO-31)	GI50 (HOP-62)	GI50 (MOLT-4)	GI50 (COLO 205)	GI50 (CAKI-1)	GI50 (NCI-H460)	GI50 (OVCAR-3)	GI50 (IGROV-1)	GI50 (EKVX)	GI50 (SNB-75)	GI50 (SK-MEL-5)
COc1ccc2c(c1)c(=O)c1c(NCCCN(C)CCCNc3ccc4c(=O)n(CCN(C)C)c(=O)n5c6ccc(OC)cc6c(=O)c3c45)ccc3c(=O)n(CCN(C)C)c(=O)n2c31	< 0.01 µM (active)	0.594 µM (active)	0.305 µM (active)	< 0.01 µM (active)	< 0.012 µM (active)	0.352 µM (active)	< 0.0202 µM (active)	< 0.0149 µM (active)	< 0.0181 µM (active)	< 0.036 µM (active)	< 0.01 µM (active)	< 0.0473 µM (active)	< 0.015 µM (active)	< 0.01 µM (active)	0.138 µM (active)	< 0.01 µM (active)	0.188 µM (active)	< 0.0175 µM (active)	
Nc1nc(N)c2nnn(C[C@H]3CC[C@@H](CO)C3)c2n1	> 100 µM (inactive)	> 100 µM (inactive)	> 100 µM (inactive)	> 100 µM (inactive)	> 100 µM (inactive)	> 100 µM (inactive)	> 100 µM (inactive)	> 100 µM (inactive)	> 100 µM (inactive)	> 100 µM (inactive)	> 100 µM (inactive)	> 100 µM (inactive)	> 100 µM (inactive)	> 100 µM (inactive)	> 100 µM (inactive)	54.7 µM (inactive)	> 100 µM (inactive)	> 100 µM (inactive)	
Cc1ccc(C2=NN=C3C(c4ccccc4)=Nc4ccccc4N3C2)cc1	6.07 µM (inactive)	3.64 µM (inactive)	15.7 µM (inactive)	5.98 µM (inactive)	3.14 µM (inactive)	4.03 µM (inactive)	4.41 µM (inactive)	16.3 µM (inactive)	4.1 µM (inactive)	9.98 µM (inactive)	1.34 µM (inactive)	9.77 µM (inactive)	19.7 µM (inactive)	3.56 µM (inactive)	2.61 µM (inactive)	13.1 µM (inactive)	10.9 µM (inactive)		6.31 µM (inactive)
CC(=O)OC1=C(CC(C)(C)C)C(=O)c2ccccc2C1=O	27.2 µM (inactive)	30.4 µM (inactive)	32.1 µM (inactive)	17.1 µM (inactive)	46.7 µM (inactive)	38.5 µM (inactive)	28.3 µM (inactive)	21.7 µM (inactive)	33.4 µM (inactive)	35.2 µM (inactive)		23.6 µM (inactive)	48.4 µM (inactive)	25 µM (inactive)		34.2 µM (inactive)	37 µM (inactive)	27.4 µM (inactive)	15.9 µM (inactive)
N#Cc1c(N)c(C#N)c2c(c1-c1ccc(Cl)cc1)COc1ccccc1-2		38.6 µM (inactive)	30.1 µM (inactive)	3.27 µM (inactive)	21.6 µM (inactive)	44.1 µM (inactive)	15.4 µM (inactive)	31.7 µM (inactive)	4.04 µM (inactive)	14.9 µM (inactive)	11.4 µM (inactive)	48 µM (inactive)		30.3 µM (inactive)	13.7 µM (inactive)	20.4 µM (inactive)	9.14 µM (inactive)		22 µM (inactive)
CCOC(=O)c1c(-c2ccc(Cl)cc2)c(C#N)c(=S)n(C2OC(COC(C)=O)C(OC(C)=O)C(OC(C)=O)C2OC(C)=O)c1C (stereo not drawn)	> 100 µM (inactive)	> 100 µM (inactive)	> 100 µM (inactive)		> 100 µM (inactive)	> 100 µM (inactive)	> 100 µM (inactive)	> 100 µM (inactive)	0.565 µM (active)	> 100 µM (inactive)	> 100 µM (inactive)	> 100 µM (inactive)	> 100 µM (inactive)	> 100 µM (inactive)	> 100 µM (inactive)	> 100 µM (inactive)	> 100 µM (inactive)	0.689 µM (active)	> 100 µM (inactive)
CC(=O)C(=NNc1ccc(-n2c(C)nc3ccc(Br)cc3c2=O)cc1)C(C)=O	53.7 µM (inactive)	> 100 µM (inactive)	82.4 µM (inactive)	50.4 µM (inactive)	93.8 µM (inactive)	> 100 µM (inactive)		> 100 µM (inactive)	> 100 µM (inactive)	35.8 µM (inactive)	> 100 µM (inactive)	> 100 µM (inactive)	> 100 µM (inactive)	> 100 µM (inactive)	> 100 µM (inactive)	> 100 µM (inactive)	> 100 µM (inactive)	20.7 µM (inactive)	65.6 µM (inactive)
Cc1cc2[nH]c3[nH]c(=O)[nH]c(=O)c3c2cc1C	> 100 µM (inactive)	> 100 µM (inactive)	97.1 µM (inactive)	> 100 µM (inactive)	> 100 µM (inactive)	> 100 µM (inactive)	> 100 µM (inactive)	> 100 µM (inactive)	> 100 µM (inactive)	29 µM (inactive)		> 100 µM (inactive)	> 100 µM (inactive)			> 100 µM (inactive)	20.3 µM (inactive)	> 100 µM (inactive)	47.1 µM (inactive)
CC(C)C(/C=C/c1ccc(Cl)c(Cl)c1)=N\NC(=O)N/N=C(/C=C/c1ccc(Cl)c(Cl)c1)C(C)C	> 100 µM (inactive)	> 100 µM (inactive)	> 100 µM (inactive)	> 100 µM (inactive)	> 100 µM (inactive)	> 100 µM (inactive)		> 100 µM (inactive)	> 100 µM (inactive)	> 100 µM (inactive)	> 100 µM (inactive)	> 100 µM (inactive)	> 100 µM (inactive)	> 100 µM (inactive)	> 100 µM (inactive)	> 100 µM (inactive)	> 100 µM (inactive)	> 100 µM (inactive)	> 100 µM (inactive)
COc1cc(/C=C2\N=C(c3ccccc3)N(/N=C3\C(=O)Nc4ccccc43)C2=O)cc(OC)c1OC	94.2 µM (inactive)	> 100 µM (inactive)	> 100 µM (inactive)		> 100 µM (inactive)	> 100 µM (inactive)	> 100 µM (inactive)	39.1 µM (inactive)	> 100 µM (inactive)	> 100 µM (inactive)	25.4 µM (inactive)	57.4 µM (inactive)	> 100 µM (inactive)	> 100 µM (inactive)	24.9 µM (inactive)	> 100 µM (inactive)	46.2 µM (inactive)	> 100 µM (inactive)	> 100 µM (inactive)
CCOC(=O)C1C(c2ccc3c(c2)OCO3)c2c(n[nH]c2O)CC1(O)OCC (stereo not drawn)	> 100 µM (inactive)	> 100 µM (inactive)	> 100 µM (inactive)	> 100 µM (inactive)	> 100 µM (inactive)	> 100 µM (inactive)		> 100 µM (inactive)	> 100 µM (inactive)	> 100 µM (inactive)	> 100 µM (inactive)	> 100 µM (inactive)	> 100 µM (inactive)	> 100 µM (inactive)	> 100 µM (inactive)	> 100 µM (inactive)	> 100 µM (inactive)	> 100 µM (inactive)	> 100 µM (inactive)
Cc1ccc(Nc2sc(C)cc2C#N)c([N+](=O)[O-])c1	> 100 µM (inactive)	> 100 µM (inactive)	> 100 µM (inactive)	> 100 µM (inactive)	> 100 µM (inactive)	> 100 µM (inactive)	53.3 µM (inactive)	> 100 µM (inactive)	> 100 µM (inactive)	> 100 µM (inactive)	> 100 µM (inactive)	> 100 µM (inactive)	> 100 µM (inactive)	> 100 µM (inactive)	> 100 µM (inactive)		> 100 µM (inactive)	> 100 µM (inactive)	
Cc1c(C(=O)Nc2ccccc2)nnn1-c1ccnc2cc(C(F)(F)F)ccc12	76.9 µM (inactive)	41.9 µM (inactive)	71.9 µM (inactive)		49.3 µM (inactive)	22.1 µM (inactive)	35.3 µM (inactive)	40.8 µM (inactive)	30.4 µM (inactive)		34 µM (inactive)	55 µM (inactive)	37.5 µM (inactive)	41.6 µM (inactive)	67.1 µM (inactive)	> 100 µM (inactive)	34.7 µM (inactive)	34.4 µM (inactive)	20.5 µM (inactive)
O=c1[nH]cnc2c1ncn2[C@@H]1C[C@H]1CO	> 100 µM (inactive)	> 100 µM (inactive)	> 100 µM (inactive)	> 100 µM (inactive)	> 100 µM (inactive)	> 100 µM (inactive)	> 100 µM (inactive)	> 100 µM (inactive)	> 100 µM (inactive)	> 100 µM (inactive)	> 100 µM (inactive)	> 100 µM (inactive)	> 100 µM (inactive)	> 100 µM (inactive)		> 100 µM (inactive)	> 100 µM (inactive)	> 100 µM (inactive)	> 100 µM (inactive)
C=C(C)[C@H]1C2=CC(C)=C(O2)[C@@H](O)[C@H](C(=C)C)CCC2=C[C@H]1OC2=O [KALLOLIDE A]	> 100 µM (inactive)	> 100 µM (inactive)	> 100 µM (inactive)	> 100 µM (inactive)	> 100 µM (inactive)	> 100 µM (inactive)	> 100 µM (inactive)	> 100 µM (inactive)	> 100 µM (inactive)		> 100 µM (inactive)	> 100 µM (inactive)	> 100 µM (inactive)	> 100 µM (inactive)	> 100 µM (inactive)	> 100 µM (inactive)	> 100 µM (inactive)	> 100 µM (inactive)	> 100 µM (inactive)
